Experimental data from PubChem BioAssay (NCI).
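How tested: cells in 96-well plates exposed to compound for 48 hours at five concentrations. TGI: total growth inhibition.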

Tests used:
Test in all cases: NCI anticancer screen, dose series, 48 h
SK-OV-3 ovarian = test system: SK-OV-3 ovarian
UO-31 renal = test system: UO-31 renal
A549 NSCLC = test system: A549 NSCLC
T-47D breast = test system: T-47D breast
RXF 393 renal = test system: RXF 393 renal
K-562 leukemia = test system: K-562 leukemia
SNB-75 CNS = test system: SNB-75 CNS
SF-268 CNS = test system: SF-268 CNS
HL-60(TB) leukemia = test system: HL-60(TB) leukemia
U251 CNS = test system: U251 CNS
SF-539 CNS = test system: SF-539 CNS
SNB-19 CNS = test system: SNB-19 CNS
MALME-3M melanoma = test system: MALME-3M melanoma
A498 renal = test system: A498 renal
BT-549 breast = test system: BT-549 breast
COLO 205 colon = test system: COLO 205 colon
EKVX NSCLC = test system: EKVX NSCLC
SW-620 colon = test system: SW-620 colon
HT29 colon = test system: HT29 colon
UACC-62 melanoma = test system: UACC-62 melanoma
OVCAR-3 ovarian = test system: OVCAR-3 ovarian
SR leukemia = test system: SR leukemia
NCI-H460 lung = test system: NCI-H460 lung
KM20L2 colon = test system: KM20L2 colon
786-0 renal = test system: 786-0 renal
LOX IMVI melanoma = test system: LOX IMVI melanoma
UACC-257 melanoma = test system: UACC-257 melanoma
HCC-2998 colon = test system: HCC-2998 colon
HOP-18 NSCLC = test system: HOP-18 NSCLC
HOP-92 NSCLC = test system: HOP-92 NSCLC
IGROV1 ovarian = test system: IGROV1 ovarian
LXFL 529 NSCLC = test system: LXFL 529 NSCLC
MCF7 breast = test system: MCF7 breast
SK-MEL-5 melanoma = test system: SK-MEL-5 melanoma
RPMI-8226 leukemia = test system: RPMI-8226 leukemia
OVCAR-8 ovarian = test system: OVCAR-8 ovarian
PC-3 prostate = test system: PC-3 prostate
NCI-H522 lung = test system: NCI-H522 lung
NCI/ADR-RES ovarian = test system: NCI/ADR-RES ovarian
DLD-1 colon = test system: DLD-1 colon
OVCAR-5 ovarian = test system: OVCAR-5 ovarian
DMS 273 small cell lung = test system: DMS 273 small cell lung
SN12C renal = test system: SN12C renal
SK-MEL-2 melanoma = test system: SK-MEL-2 melanoma
MDA-MB-231 breast = test system: MDA-MB-231 breast
HCT-116 colon = test system: HCT-116 colon
MOLT-4 leukemia = test system: MOLT-4 leukemia
TK-10 renal = test system: TK-10 renal
SNB-78 CNS = test system: SNB-78 CNS
SK-MEL-28 melanoma = test system: SK-MEL-28 melanoma
ACHN renal = test system: ACHN renal
M14 melanoma = test system: M14 melanoma
NCI-H226 lung = test system: NCI-H226 lung
CCRF-CEM leukemia = test system: CCRF-CEM leukemia
KM12 colon = test system: KM12 colon
XF 498 CNS = test system: XF 498 CNS
SF-295 CNS = test system: SF-295 CNS
M19-MEL melanoma = test system: M19-MEL melanoma
HCT-15 colon = test system: HCT-15 colon
DMS 114 small cell lung = test system: DMS 114 small cell lung
NCI-H23 lung = test system: NCI-H23 lung
OVCAR-4 ovarian = test system: OVCAR-4 ovarian
CAKI-1 renal = test system: CAKI-1 renal
HOP-62 NSCLC = test system: HOP-62 NSCLC

COc1cc(C2c3cc4c(cc3[C@H](NC(=O)c3cccs3)C3COC(=O)[C@H]23)OCO4)cc(OC)c1OC (some centres undefined)
TGI (SK-OV-3 ovarian): > 100 µM | TGI (UO-31 renal): > 44.3 µM | TGI (A549 NSCLC): 37.1 µM | TGI (T-47D breast): > 100 µM | TGI (RXF 393 renal): 0.0543 µM | TGI (K-562 leukemia): > 37.8 µM | TGI (SNB-75 CNS): > 100 µM | TGI (SF-268 CNS): > 40.8 µM | TGI (HL-60(TB) leukemia): < 0.0251 µM | TGI (U251 CNS): 0.865 µM | TGI (SF-539 CNS): < 0.0141 µM | TGI (SNB-19 CNS): > 100 µM | TGI (MALME-3M melanoma): > 100 µM | TGI (A498 renal): 0.0481 µM | TGI (BT-549 breast): 16.4 µM | TGI (COLO 205 colon): 0.0308 µM | TGI (EKVX NSCLC): > 100 µM | TGI (SW-620 colon): > 100 µM | TGI (HT29 colon): 11.2 µM | TGI (UACC-62 melanoma): > 100 µM | TGI (OVCAR-3 ovarian): > 100 µM | TGI (SR leukemia): 17.7 µM | TGI (NCI-H460 lung): 10.8 µM | TGI (KM20L2 colon): 0.0396 µM | TGI (786-0 renal): 21.7 µM | TGI (LOX IMVI melanoma): > 41 µM | TGI (UACC-257 melanoma): > 100 µM | TGI (HCC-2998 colon): 13.2 µM | TGI (HOP-18 NSCLC): > 100 µM | TGI (HOP-92 NSCLC): 70.3 µM | TGI (IGROV1 ovarian): > 100 µM | TGI (LXFL 529 NSCLC): 47.2 µM | TGI (MCF7 breast): 31.3 µM | TGI (SK-MEL-5 melanoma): 0.708 µM | TGI (RPMI-8226 leukemia): 19.3 µM | TGI (OVCAR-8 ovarian): 94.4 µM | TGI (PC-3 prostate): 0.0236 µM | TGI (NCI-H522 lung): 0.0213 µM | TGI (NCI/ADR-RES ovarian): 0.459 µM | TGI (DLD-1 colon): 36.8 µM | TGI (OVCAR-5 ovarian): > 95.1 µM | TGI (DMS 273 small cell lung): > 100 µM | TGI (SN12C renal): 19.5 µM | TGI (SK-MEL-2 melanoma): > 100 µM | TGI (MDA-MB-231 breast): 0.0128 µM | TGI (HCT-116 colon): 1.05 µM | TGI (MOLT-4 leukemia): 24.5 µM | TGI (TK-10 renal): > 100 µM | TGI (SNB-78 CNS): > 100 µM | TGI (SK-MEL-28 melanoma): 83.9 µM | TGI (ACHN renal): 18.7 µM | TGI (M14 melanoma): 33.7 µM

C[C@]12CCC3[C@@H](C[C@H]4OC(=O)[C@@]35CCC(=O)C=C45)C1CCC2=O (some centres undefined)
TGI (SK-OV-3 ovarian): > 100 µM | TGI (UO-31 renal): > 100 µM | TGI (NCI-H226 lung): > 100 µM | TGI (A549 NSCLC): > 100 µM | TGI (RXF 393 renal): > 100 µM | TGI (K-562 leukemia): > 100 µM | TGI (CCRF-CEM leukemia): > 100 µM | TGI (SF-268 CNS): > 100 µM | TGI (HL-60(TB) leukemia): > 100 µM | TGI (U251 CNS): > 100 µM | TGI (SF-539 CNS): > 100 µM | TGI (SNB-19 CNS): > 100 µM | TGI (MALME-3M melanoma): > 100 µM | TGI (KM12 colon): > 100 µM | TGI (COLO 205 colon): > 100 µM | TGI (EKVX NSCLC): > 100 µM | TGI (SW-620 colon): > 100 µM | TGI (HT29 colon): > 100 µM | TGI (OVCAR-3 ovarian): > 100 µM | TGI (SR leukemia): > 100 µM | TGI (NCI-H460 lung): > 100 µM | TGI (786-0 renal): > 100 µM | TGI (UACC-257 melanoma): > 100 µM | TGI (XF 498 CNS): > 100 µM | TGI (HCC-2998 colon): > 100 µM | TGI (HOP-18 NSCLC): > 100 µM | TGI (SF-295 CNS): > 100 µM | TGI (HOP-92 NSCLC): > 100 µM | TGI (IGROV1 ovarian): > 100 µM | TGI (M19-MEL melanoma): > 100 µM | TGI (LXFL 529 NSCLC): > 100 µM | TGI (SK-MEL-5 melanoma): > 100 µM | TGI (HCT-15 colon): > 100 µM | TGI (RPMI-8226 leukemia): > 100 µM | TGI (OVCAR-8 ovarian): > 100 µM | TGI (NCI-H522 lung): > 100 µM | TGI (DLD-1 colon): > 100 µM | TGI (OVCAR-5 ovarian): > 100 µM | TGI (SN12C renal): > 100 µM | TGI (SK-MEL-2 melanoma): > 100 µM | TGI (MOLT-4 leukemia): > 100 µM | TGI (TK-10 renal): > 100 µM | TGI (DMS 114 small cell lung): > 100 µM | TGI (SK-MEL-28 melanoma): > 100 µM | TGI (ACHN renal): > 100 µM | TGI (NCI-H23 lung): > 100 µM | TGI (M14 melanoma): > 100 µM

CC(C)=CCC/C(C)=C/CC/C(C)=C/CC/C=C(\C)CC/C=C(\C)CCC1SC1(C)C (centres undefined)
TGI (SK-OV-3 ovarian): > 100 µM | TGI (UO-31 renal): > 100 µM | TGI (NCI-H226 lung): > 100 µM | TGI (A549 NSCLC): > 100 µM | TGI (RXF 393 renal): > 100 µM | TGI (K-562 leukemia): > 100 µM | TGI (SNB-75 CNS): > 100 µM | TGI (CCRF-CEM leukemia): > 100 µM | TGI (SF-268 CNS): > 100 µM | TGI (HL-60(TB) leukemia): > 100 µM | TGI (U251 CNS): > 100 µM | TGI (SF-539 CNS): > 100 µM | TGI (SNB-19 CNS): > 100 µM | TGI (MALME-3M melanoma): > 100 µM | TGI (KM12 colon): > 100 µM | TGI (A498 renal): > 100 µM | TGI (COLO 205 colon): > 100 µM | TGI (EKVX NSCLC): > 100 µM | TGI (SW-620 colon): > 100 µM | TGI (HT29 colon): > 100 µM | TGI (UACC-62 melanoma): > 100 µM | TGI (NCI-H460 lung): > 100 µM | TGI (KM20L2 colon): > 100 µM | TGI (786-0 renal): > 100 µM | TGI (LOX IMVI melanoma): > 100 µM | TGI (OVCAR-4 ovarian): > 100 µM | TGI (CAKI-1 renal): > 100 µM | TGI (UACC-257 melanoma): > 100 µM | TGI (HCC-2998 colon): > 100 µM | TGI (HOP-18 NSCLC): > 100 µM | TGI (SF-295 CNS): > 100 µM | TGI (HOP-92 NSCLC): > 100 µM | TGI (IGROV1 ovarian): > 100 µM | TGI (M19-MEL melanoma): > 100 µM | TGI (LXFL 529 NSCLC): > 100 µM | TGI (SK-MEL-5 melanoma): > 100 µM | TGI (HCT-15 colon): > 100 µM | TGI (HOP-62 NSCLC): > 100 µM | TGI (RPMI-8226 leukemia): > 100 µM | TGI (OVCAR-8 ovarian): > 100 µM | TGI (NCI-H522 lung): > 100 µM | TGI (DLD-1 colon): > 100 µM | TGI (OVCAR-5 ovarian): > 100 µM | TGI (DMS 273 small cell lung): > 100 µM | TGI (SN12C renal): > 100 µM | TGI (SK-MEL-2 melanoma): > 100 µM | TGI (HCT-116 colon): > 100 µM | TGI (MOLT-4 leukemia): > 100 µM | TGI (TK-10 renal): > 100 µM | TGI (DMS 114 small cell lung): > 100 µM | TGI (SNB-78 CNS): > 100 µM | TGI (SK-MEL-28 melanoma): > 100 µM | TGI (ACHN renal): > 100 µM | TGI (NCI-H23 lung): > 100 µM | TGI (M14 melanoma): > 100 µM
